Test results: US20250235462A1, “NOVEL CAPSID ASSEMBLY INHIBITORS” (AM SCIENCES INC, priority 2021, published 2025)
Values joined by “and” are separate entries in the source; they are usually repeats but may differ in a detail not shown here. Equal values may be shown once. Read-outs that look alike come from different tables or passages of the source.

Tests used:
[1] = tested on: intracellular HBV DNA; assay: Real-time PCR for intracellular HBV DNA in HepAD38 cells; assay type: cell-based, hepatitis B virus (HBV); conditions: treated for 65 hours, intracellular HBV DNA by real-time PCR
Method: HepAD38 cells were cultured in DMEM medium (Welgene) supplemented with 200 unit/mL penicillin, 200 μg/mL streptomycin, and 10% FBS. During maintenance and passage, the cells were cultured together with 0.4 μg/mL tetracycline. Two days before the treatment with compounds for inducing HBV replication was started, the medium was replaced with a tetracycline-free complete growth medium. […]
HepAD38 cells were treated with a compound for 65 hours and then recovered, and intracellular HBV DNA was extracted therefrom according to the protocol in the DNeasy Blood & Tissue Kit (Qiagen). The primers and probes used to quantify HBV DNA were 5′-[…]-3′, 5′-[…]-3′, and 5′-/56-FAM/TGT CCT GGT/ZEN/[…]/3IABKFQ/-3′. The HBV DNA was amplified by real-time PCR assay using LightCycler 480 (Roche) (J. Virol., 2018, 92(16):e00339-18). All of the processes were confirmed in duplicate.

[2] = biological target: Protein (capsid assembly) (Hepatitis B virus genotype D subtype ayw, UniProt P03146); assay: Protein inhibition (capsid assembly inhibition), Table 1; assay type: biochemical; conditions: for EC50: NVR value of the same run in brackets, read-out: Protein EC50
[3] = Hepatitis B virus, HePAD38, 65 h
[4] = @30 μM, read-out: Protein % inhibition rate (@30 μM)

Protein (capsid assembly), sequence (P03146 whole entry): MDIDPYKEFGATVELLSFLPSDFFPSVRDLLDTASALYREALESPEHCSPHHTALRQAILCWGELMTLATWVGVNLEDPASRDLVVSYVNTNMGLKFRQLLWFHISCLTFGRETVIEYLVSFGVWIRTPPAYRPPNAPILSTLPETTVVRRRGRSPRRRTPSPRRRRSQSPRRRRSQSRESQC

| SMILES | IC50 [1, 3] [µM] | inhibition at 30 µM [2, 4] [%] | EC50 [2] | IC50 ([1]; read-out: IC50) [µM] | inhibition at 30 µM ([2]; read-out: Protein % inhibition rate (@30 μM), @30 μM) [%] |
| --- | --- | --- | --- | --- | --- |
| N#Cc1cccc(N(Cc2nnc3n2CCCCC3)C(=O)Nc2ccc(F)c(Cl)c2)c1 [Example 19, 3-(3-Chloro-4-fluorophenyl)-1-(3-cyanophenyl)-1-((6,7,8,9-tetrahydro-5H-[1,2,4]triazolo[4,3-a]azepin-3-yl)methyl)urea] | > 3.3 | 94 | – | – | – |
| COc1ccc(N(Cc2nnc3n2CCCCC3)C(=O)N(C)c2ccc(F)c(Cl)c2)cc1 [Example 9, 1-(3-Chloro-4-fluorophenyl)-3-(4-methoxyphenyl)-1-methyl-3-((6,7,8,9-tetrahydro-5H-[1,2,4]triazolo[4,3-a]azepin-3-yl)methyl)urea] | 0.75 | 5 | – | – | – |
| O=C(Nc1ccc(F)c(Cl)c1)N(Cc1nnc2n1CCCCC2)c1ccc2cc[nH]c2c1 [Example 10, 3-(3-Chloro-4-fluorophenyl)-1-(1H-indol-6-yl)-1-((6,7,8,9-tetrahydro-5H-[1,2,4]triazolo[4,3-a]azepin-3-yl)methyl)urea] | > 3.3 | 85 | – | – | – |
| O=C(Nc1ccc(F)c(Cl)c1)N(Cc1nnc2n1CCCCCC2)c1ccc2c(c1)OCO2 [Example 30, 1-(Benzo[d][1,3]dioxol-5-yl)-3-(3-chloro-4-fluorophenyl)-1-((5,6,7,8,9,10-hexahydro-[1,2,4]triazolo[4,3-a]azocin-3-yl)methyl)urea] | 0.74 | 32 | 3.6 µM | – | – |
| COc1ccc(N(Cc2nnc3n2CCN(C(=O)OCc2ccccc2)CC3)C(=O)Nc2ccc(F)c(Cl)c2)cc1 [Example 38, Benzyl 3-((3-(3-chloro-4-fluorophenyl)-1-(4-methoxyphenyl)ureido)methyl)-8,9-dihydro-5H-[1,2,4]triazolo[4,3-d][1,4]diazepine-7(6H)-carboxylate] | > 3.3 | -1 | – | – | – |
| COc1ccc(N(Cc2nnc(C3CCCC3)n2C)C(=O)Nc2ccc(F)c(Cl)c2)cc1 [Example 31, 3-(3-Chloro-4-fluorophenyl)-1-((5-cyclopentyl-4-methyl-4H-1,2,4-triazol-3-yl)methyl)-1-(4-methoxyphenyl)urea] | 3.48 | -4 | 16 µM | – | – |
| COc1ccc(N(Cc2nnc(C)n2-c2ccccc2)C(=O)Nc2ccc(F)c(Cl)c2)cc1 [Example 25, 3-(3-Chloro-4-fluorophenyl)-1-(4-methoxyphenyl)-1-((5-methyl-4-phenyl-4H-1,2,4-triazol-3-yl)methyl)urea] | > 3.3 | -2 | – | – | – |
| O=C(Nc1cc(F)c(F)c(F)c1)c1ccc(F)c(S(=O)(=O)N2CCC(O)CC2)c1 [NVR, reference compound] | – | – | 4.1 µM and 5.2 µM and 4.9 µM and 3.9 µM and 4.8 µM | 0.4 | – |
| O=C(Nc1ccc(F)c(Cl)c1)N(Cc1nnc2n1CCCCC2)c1cccc(C(F)(F)F)c1 [Example 21, 3-(3-Chloro-4-fluorophenyl)-1-((6,7,8,9-tetrahydro-5H-[1,2,4]triazolo[4,3-a]azepin-3-yl)methyl)-1-(3-(trifluoromethyl)phenyl)urea] | > 3.3 | – | 11 µM | – | 4 |
| COc1ccc(N(Cc2nnc(C)n2C2CC2)C(=O)Nc2ccc(F)c(Cl)c2)cc1 [Example 37, 3-(3-Chloro-4-fluorophenyl)-1-((4-cyclopropyl-5-methyl-4H-1,2,4-triazol-3-yl)methyl)-1-(4-methoxyphenyl)urea] | > 3.3 | 84.1 | – | – | – |
| COC(=O)Cc1nnc(CN(C(=O)Nc2ccc(F)c(Cl)c2)c2ccc3c(c2)OCO3)[nH]1 [Example 45, Methyl 2-(5-((1-(benzo[d][1,3]dioxol-5-yl)-3-(3-chloro-4-fluorophenyl)ureido)methyl)-4H-1,2,4-triazol-3-yl)acetate] | > 3.3 | 6 | – | – | – |
| COc1ccc(N(Cc2nnc(C)n2C)C(=O)Nc2ccc(F)c(Cl)c2)cc1 [Example 15, 3-(3-Chloro-4-fluorophenyl)-1-((4,5-dimethyl-4H-1,2,4-triazol-3-yl)methyl)-1-(4-methoxyphenyl)urea] | > 3.3 | 55.3 | 29 µM | – | – |
| CNc1ccc(N(Cc2nnc3n2CCCCC3)C(=O)Nc2ccc(F)c(Cl)c2)cc1 [Example 14, 3-(3-Chloro-4-fluorophenyl)-1-(4-(methylamino)phenyl)-1-((6,7,8,9-tetrahydro-5H-[1,2,4]triazolo[4,3-a]azepin-3-yl)methyl)urea] | > 0.55 | 92 | 2.8 µM | – | – |
| N#Cc1ccc(N(Cc2nnc3n2CCCCC3)C(=O)Nc2ccc(F)c(Cl)c2)cc1 [Example 28, 3-(3-Chloro-4-fluorophenyl)-1-(4-cyanophenyl)-1-((6,7,8,9-tetrahydro-5H-[1,2,4]triazolo[4,3-a]azepin-3-yl)methyl)urea] | 0.604 | 36 | 4 µM | – | – |
| O=C(NC1CCCC1)N(Cc1nnc2n1CCCCC2)c1ccc2c(c1)OCO2 [Example 11, 1-(Benzo[d][1,3]dioxol-5-yl)-3-cyclopentyl-1-((6,7,8,9-tetrahydro-5H-[1,2,4]triazolo[4,3-a]azepin-3-yl)methyl)urea] | > 3.3 | 4 | – | – | – |
| O=C(Nc1ccccc1Cl)N(Cc1nnc2n1CCCCC2)c1ccc2c(c1)OCO2 [Example 5, 1-(Benzo[d][1,3]dioxol-5-yl)-3-(2-chlorophenyl)-1-((6,7,8,9-tetrahydro-5H-[1,2,4]triazolo[4,3-a]azepin-3-yl)methyl)urea] | > 3.3 | 9 | – | – | – |
| O=C(Nc1ccc(F)c(Cl)c1)N(Cc1nnc2n1CCCCC2)c1ccc2[nH]ccc2c1 [Example 18, 3-(3-Chloro-4-fluorophenyl)-1-(1H-indol-5-yl)-1-((6,7,8,9-tetrahydro-5H-[1,2,4]triazolo[4,3-a]azepin-3-yl)methyl)urea] | > 3.3 | 96.8 | 4.8 µM | – | – |
| Cc1cccc(NC(=O)N(Cc2nnc3n2CCCCC3)c2ccc3c(c2)OCO3)n1 [Example 20, 1-(Benzo[d][1,3]dioxol-5-yl)-3-(6-methylpyridin-2-yl)-1-((6,7,8,9-tetrahydro-5H-[1,2,4]triazolo[4,3-a]azepin-3-yl)methyl)urea] | 0.89 | 3 | – | – | – |
| COc1ccc(N(Cc2nnc(C)n2C2CCCC2)C(=O)Nc2ccc(F)c(Cl)c2)cc1 [Example 32, 3-(3-Chloro-4-fluorophenyl)-1-((4-cyclopentyl-5-methyl-4H-1,2,4-triazol-3-yl)methyl)-1-(4-methoxyphenyl)urea] | 0.32 | 23 | 4.9 µM | – | – |
| Cn1ccc(N(Cc2nnc3n2CCCCC3)C(=O)Nc2ccc(F)c(Cl)c2)n1 [Example 35, 3-(3-Chloro-4-fluorophenyl)-1-(1-methyl-1H-pyrazol-3-yl)-1-((6,7,8,9-tetrahydro-5H-[1,2,4]triazolo[4,3-a]azepin-3-yl)methyl)urea] | > 3.3 | 63.1 | – | – | – |
| O=C(Nc1ccc(F)c(Cl)c1)N(Cc1nnc2n1CCCCC2)C1CCCC1 [Example 6, 3-(3-Chloro-4-fluorophenyl)-1-cyclopentyl-1-((6,7,8,9-tetrahydro-5H-[1,2,4]triazolo[4,3-a]azepin-3-yl)methyl)urea] | 1.57 | 77 | 1.2 µM | – | – |
| COc1ccc(N(Cc2nnc(C(C)C)n2C)C(=O)Nc2ccc(F)c(Cl)c2)cc1 [Example 29, 3-(3-Chloro-4-fluorophenyl)-1-((5-isopropyl-4-methyl-4H-1,2,4-triazol-3-yl)methyl)-1-(4-methoxyphenyl)urea] | > 3.3 | 1 | – | – | – |
| O=C(Nc1ccc(F)c(Cl)c1)N(Cc1nnc2n1CCCCC2)c1ncco1 [Example 39, 3-(3-Chloro-4-fluorophenyl)-1-(oxazol-2-yl)-1-((6,7,8,9-tetrahydro-5H-[1,2,4]triazolo[4,3-a]azepin-3-yl)methyl)urea] | > 3.3 | 100 | 5.7 µM | – | – |
| CN(C)c1ccc(N(Cc2nnc3n2CCCCC3)C(=O)Nc2ccc(F)c(Cl)c2)cc1 [Example 34, 3-(3-Chloro-4-fluorophenyl)-1-(4-(dimethylamino)phenyl)-1-((6,7,8,9-tetrahydro-5H-[1,2,4]triazolo[4,3-a]azepin-3-yl)methyl)urea] | > 3.3 | -7 | – | – | – |
| CC(C)(C)OC(=O)n1ccc2cc(N(Cc3nnc4n3CCCCC4)C(=O)Nc3ccc(F)c(Cl)c3)ccc21 [Example 17, tert-Butyl 5-(3-(3-chloro-4-fluorophenyl)-1-((6,7,8,9-tetrahydro-5H-[1,2,4]triazolo[4,3-a]azepin-3-yl)methyl)ureido)-1H-indole-1-carboxylate] | > 3.3 | 92.6 | 13 µM | – | – |
